Reference: US20130337453A1, “EXTRACELLULAR MITOCHONDRIA-BASED SCREENING AND TREATMENT” (TUFTS UNIVERSITY, priority 2010, published 2013)
“Also recorded” adds a separate entry of the source.

Key:
LAD2 cells [1] = assay: Mitochondria-induced degranulation (beta-hex release) after P2X7 receptor inhibitor pre-treatment; type: cell-based, human; conditions: pre-incubation 30 min; beta-hex release 30 min after stimulation
Protocol: FIG. 10 illustrates that mt component activation of LAD2 cells is P2X7-receptor-dependent. LAD2 cells were pre-treated with P2X7 receptor inhibitor for 30 min and then stimulated with mt components. Different concentration of CpG-ODN [ISOLATED fomyl-peptides?] was used to stimulated LAD2 cells (FIG. 10A). LAD2 cells were treated with a P2X7 receptor inhibitor (FIG. 10B). Beta-hex release was measured 30 mins after stimulation. (n=3; *p<0.05, compared to control). FIG. 10C: live LAD2 cells were stained with stained with Fura-2to measure intracellular calcium changes in response to different concentrations of mt components.
We then investigated which components from sonicated mitochondria may activate LAD2 cells. ATP has been reported to stimulated human mast cell degranulation (Cohen et al., 2001, Biochemistry 40:6589-97). Therefore, we tested if inhibition of P2X7 receptors, the primary receptor of ATP, can block the effects of mitochondrial components.

rat mast cells = rat mast cells (Sengoku 2000); cited from earlier work
mouse model of AD = mouse model of AD (Inagaki 2010); cited from earlier work
[2] = tested on: peripheral sensory neurons; conditions: Inagaki 2010; cited from earlier work
LAD2 cells [3] = assay: Pre-stored TNF secretion measured by ELISA; type: cell-based, human; conditions: MDIVI-1 40 μM pretreatment; SP 1 and 2 μM, vs SP alone
Protocol: (§1) FIG. 2 illustrates that SP-stimulated degranulation and pre-stored TNF secretion is blocked by the mitochondrial fission protein Drp1 inhibitor (MDIVI-1) and Drp1-silencing siRNA. LAD2 cells were treated with MDIVI-1 (40 μM) for 15 min at 37° C. FIG. 2A: Mitochondrial morphology was evaluated by Confocal microscopy in normal LAD2 cells with or without stimulation with SP (2 μM, 30 min, 37° C.). Left panels represent granules; middle panels show mitochondria and the right panels are merged from the previous two. The images shown are representative of more than 40 cells studied. […] LAD2 cells were pretreated with MDIVI-1 (40 μM) for 30 min and then stimulated with SP (1 or 2 μM) for 30 min at 37° C. β-hexosaminidase was measured spectrophotometrically and TNF was measured by ELISA.
(§2) In order to rule out the possibility that mitochondrial translocation at the cell surface is a bystander effect secondary to cell shape changes during degranulation, the function of Drp1 in mast cell degranulation was investigated. Pretreatment of LAD2 mast cells with the mitochondria] Drp1 inhibitor MDIVI-1 at 40 μM for 15 min at 37° C. (Cassidy-Stone, et al. 2008, Dev. Cell 14:193-204) inhibited mitochondrial translocation (FIG. 2A) despite addition of SP (2 μM for 30 min).

LAD2 cells [4] = assay: Mitochondrial translocation in live mast cells by confocal microscopy (MitoTracker/LysoTracker); type: cell-based, human
Protocol: LAD2 cells, mast cells derived from a human leukemia patient,were stained with MitoTracker probe (20 nM) for 20 min (middle panels) and LysoTracker DND probe (50 nM) for 30 min (left panels). The cells were then moved to glass bottom culture dishes and observed by TSC SP2 Confocal microscopy. […] The left panels show granules in green. The middle panels represent mitochondria florescence. The right panels represent images merged from the two previous panels. […] Merged images (as described above) of 100 cells randomly selected from each experiment (n=3) are scored by three different operators each time. […] Confocal images from 19 resting cells and 20 degranulating cells (SP 2 μM, 30 min) were randomly selected for analysis. Mitochondria numbers were calculated by ImageJ software using a “mitochondria calculator” plugin.
as §1
Very few mitochondria could be found in the cell surface region. It is almost impossible to distinguish individual mitochondria from this pool by confocal microscopy. Since the average pH of mast cell secretory granules is 5.5, LysoTracker (left panels) was used as a dye to stain the granules. After SP (2 μM) stimulation for 30 min at 37° C., mast cells underwent rapid degranulation, during which mitochondrial particles translocate throughout the cell (FIG. 1A). […]

LAD2 cells [5] = assay: SP-triggered beta-hexosaminidase release (degranulation index); type: cell-based, human; conditions: MDIVI-1 40 μM pretreatment; SP 1 and 2 μM, vs SP alone
Protocol: as §1, §2

LAD2 cells [6] = assay: ATP and Cytochrome C in supernatant fluid of stimulated cells; type: cell-based, human; conditions: SP-stimulated LAD2 cells
[7] = tested on: murine mast cell line and isolated murine peritoneal mast cells; conditions: SP 0.01 to 1 μM; not IL-1, IL-3, IL-4, IL-6 or GM-CSF; cited from earlier work
[8] = tested on: isolated cardiac cell mitochondria; conditions: SP concentrations higher than 1 μM; cited from earlier work
Drp1 = assay: Western blot of Drp1 phosphorylation at Ser-616; type: cell-based, human; conditions: SP 2 μM for 30 min, LAD2 mast cells
Excerpt: Antibodies against the Ser-616 phosphorylated form of Drp1 was purchased from Cell Signaling based in Massachusetts, USA.
To confirm the involvement of Drp1, the State of phosphorylation of Drp1 at the amino acid serine-616 (Ser-616) was investigated through western blot analysis.

human skin mast cells [9] = assay: Transmission electron microscopy of mitochondria in skin mast cells; type: cell-based
Excerpt: Mitochondria are shown within white rectangles. White asterisks represent released granular materials. FIG. 5B charts the number of mitochondria visible under electron microscope and FIG. 5C charts the percentage of mitochondria close to the cell surface in each cell as semi-quantitated from high magnification glossy prints by three independent operators. Magnification: 13,800×; (n=3; *p<0.05 compared to control).
Observations using Transmission Electron Microscopy (TEM) (Theoharides, et al. 1998, Endocrinology 139:403-13) indicate translocation of mitochondria particles to sites of exocytosis. Mitochondria of unstimulated human skin mast cells are located around the cell nucleus and appear intact (FIG. 5A, left side). On the contrary, mitochondria of activated mast cells are much smaller than mitochondria from control cells and are located close to secretory granules undergoing exocytosis (FIG. 5A, right side).

LAD2 cells [10] = assay: mtDNA (Mt-7s, Mt-CytB) in supernatant fluid by real-time PCR; type: cell-based, human; conditions: 10 μM SP, 60 minutes
Protocol: Cell viability (D) was measured by Tulubin-Blue staining.
The amount of these two genes, MT-7s DNA and MT-CytB, which are unique to mtDNA and not present in regular human genomic DNA, increased 200 times in SP-stimulated cells (10 μM SP) compared with that in the control as detected by real-time PCR (FIG. 7A). In contrast, genomic DNA for glyceraldehyde 3-phosphate dehydrogenase (GAPDH) is not detected (Hu, VIC TAMRA, data not shown).

human skin mast cells [11] = conditions: cited from earlier work
LAD2 cells [12] = conditions: SP 1 or 2 μM for 30 min (Kulka 2007); cited from earlier work

SMILES: Cl.Clc1cccc(-c2nnnn2Cc2cccnc2)c1Cl.O [A-438079 hydrochloride hydrate]
- block of mitochondria-induced degranulation (LAD2 cells [1]): 40%

SMILES: C=CC[C@@H]1/C=C(\C)C[C@H](C)C[C@H](OC)[C@H]2O[C@@](O)(C(=O)C(=O)N3CCCC[C@H]3C(=O)O[C@H](/C(C)=C/[C@@H]3CC[C@@H](O)[C@H](OC)C3)[C@H](C)[C@@H](O)CC1=O)[C@H](C)C[C@@H]2OC [FK506, tacrolimus]
- secretion of IgE-induced histamine (rat mast cells): inhibit
- pruritus (mouse model of AD): prevent
- SP content of peripheral sensory neurons [2]: deplete

SMILES: COc1cc(-n2c(=S)[nH]c3ccccc3c2=O)c(Cl)cc1Cl [MDIVI-1]
- secretion of pre-stored TNF (LAD2 cells [3]): significantly inhibited
- mitochondrial translocation (LAD2 cells [4]; MDIVI-1 40 μM pretreatment 15 min, 37° C., SP 2 μM for 30 min): inhibited
- SP-triggered β-hexosaminidase release (LAD2 cells [5]): significantly inhibited; also recorded: significant inhibition

SMILES: CSCC[C@H](NC(=O)[C@H](CC(C)C)NC(=O)CNC(=O)[C@H](Cc1ccccc1)NC(=O)[C@H](Cc1ccccc1)NC(=O)[C@H](CCC(N)=O)NC(=O)[C@H](CCC(N)=O)NC(=O)[C@@H]1CCCN1C(=O)[C@H](CCCCN)NC(=O)[C@@H]1CCCN1C(=O)[C@@H](N)CCCNC(=N)N)C(N)=O [SP, Substance P]
- Cytochrome C (Cyt C) in supernatant fluid (LAD2 cells [6]): marked increase
- ATP level in supernatant fluid (LAD2 cells [6]; dosage-dependent on SP): marked increase
- gene expression and release of cytokines [7]: induce selective gene expression and release of TNF
- percentage of LAD2 cells containing mitochondria undergoing translocation (LAD2 cells [4]; SP 2 μM, 30 min, 37° C., 20% in control cells): about 55%
- number of mitochondria close to the cell surface (LAD2 cells [4]; after SP stimulation (2 μM, 30 min), ImageJ count): significant increase
- rate of oxygen consumption [8]: enhance
- Drp1 phosphorylation at Ser-616 (Drp1): Drp1 phosphorylation
- number of mitochondria visible under the electron microscope (human skin mast cells [9]; SP-activated skin mast cells vs control): increased significantly
- percentage of mitochondria translocated close to cell surface (human skin mast cells [9]; SP-activated skin mast cells, control 25%): 75%
- increase in percentage of mitochondria translocated close to cell surface (human skin mast cells [9]; SP-activated vs control (25% to 75%)): 200%
- amount of MT-7s DNA and MT-CytB in supernatant, increase vs control (LAD2 cells [10]): 200 times
- de novo TNF gene expression and release (human skin mast cells [11]; SP 0.3-30 μM (Okayama 1998)): selectively induced only de novo TNF gene expression and release
- histamine and TNF release (human skin mast cells [11]; SP 0.8-100 ηM): induced histamine and de novo synthesized TNF release
- degranulation of pre-stored TNF (LAD2 cells [12]): activates degranulation
